Results published in BindingDB's records for doi:10.1016/j.bioorg.2016.01.001 (Indian Institute of Integrative Medicine, 2016).

Molecular target: T1, Tyrosinase (Mus musculus, UniProt P11344)
T1 sequence (P11344 whole entry): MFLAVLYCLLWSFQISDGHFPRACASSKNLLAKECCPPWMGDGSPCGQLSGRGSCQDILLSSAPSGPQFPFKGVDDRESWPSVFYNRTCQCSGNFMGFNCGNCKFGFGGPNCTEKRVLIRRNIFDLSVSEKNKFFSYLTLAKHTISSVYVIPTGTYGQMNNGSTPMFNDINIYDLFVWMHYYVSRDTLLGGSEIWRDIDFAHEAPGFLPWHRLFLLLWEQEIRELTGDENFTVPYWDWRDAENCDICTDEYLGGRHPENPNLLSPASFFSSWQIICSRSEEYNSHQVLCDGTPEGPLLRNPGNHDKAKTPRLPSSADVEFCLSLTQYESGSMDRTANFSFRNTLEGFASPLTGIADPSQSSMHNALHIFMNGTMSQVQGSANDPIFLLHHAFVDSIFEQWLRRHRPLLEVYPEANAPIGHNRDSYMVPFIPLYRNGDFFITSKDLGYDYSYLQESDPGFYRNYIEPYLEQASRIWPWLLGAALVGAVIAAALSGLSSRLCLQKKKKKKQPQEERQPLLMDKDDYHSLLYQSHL
Assay: Tyrosinase Activity
Conditions: pH 6.8
Description: The reaction mixture contained 50 mM phosphate buffer, pH 6.8, 0.05% L-DOPA and the supernatant (tyrosinase). After incubation in the absence or presence of various stilbene derivatives (with varying concentrations ranging from 1 µg/mL to 100 µg/mL) at 37 °C for 20 min, dopachrome was monitored by measuring absorbanceat wavelength 492 nm by using a Molecular Devices microplate reader.

Row | SMILES | IC50 [µM]
1 | COc1ccc(/C=C\c2cc(OC)c(OC)c(OC)c2)cc1 [1,2,3-Trimethoxy-5-[(Z)-2-(4-methoxy-phenyl)-vinyl]-benzene] | > 500
2 | Oc1ccc(/C=C/c2cc(O)cc(O)c2)cc1 [5-[(E)-2-(4-hydroxyphenyl)ethenyl]benzene-1,3-diol] | 10.8
3 | N#C/C(=C/c1ccc(O)cc1)c1ccc(O)cc1 [(E)-2,3-bis(4-Hydroxyphenyl)acrylonitrile (21)] | 5.06
4 | N#C/C(=C/c1cccnc1)c1ccc(O)cc1 [(E)-2-(4-Hydroxyphenyl)-3-(pyridin-3-yl)acrylonitrile (22)] | 270
5 | COc1ccc(/C=C(/C=O)c2ccccc2)cc1 [(E)-3-(4-Methoxyphenyl)-2-phenylpropenal (20)] | 276
6 | COC(=O)/C(=C/c1ccc(O)c(OC)c1)c1ccc(OC)cc1 [(E)-Methyl-3-(4-hydroxy-3-methoxyphenyl)-2-(4-methoxyphenyl)acrylate (19)] | > 500
7 | Fc1c(F)c(F)c(/C=C\c2ccccc2)c(F)c1F [Trans-1,2,3,4,5-Pentafluoro-6-styryl-benzene (14)] | > 500
8 | C(=C\c1ccccc1)/c1ccccc1 [Trans-1,2-Diphenylethene (1)] | > 500
9 | Fc1cc(F)cc(/C=C\c2ccccc2)c1 [Trans-1,3-Difluoro-5-styrylbenzene (12)] | 394
10 | Brc1ccc(/C=C\c2ccccc2)cc1 [Trans-1-Bromo-4-styrylbenzene (4)] | 277
11 | Clc1ccc(/C=C\c2ccccc2)cc1 [Trans-1-Chloro-4-styrylbenzene (3)] | 320
12 | Fc1ccc(/C=C\c2ccccc2)cc1 [Trans-1-Fluoro-4-styryl-benzene (2)] | 79.4
13 | COc1ccc(/C=C\c2ccccc2)cc1 [Trans-1-Methoxy-4-styryl-benzene (9)] | 433
14 | O=[N+]([O-])c1ccc(/C=C\c2ccccc2)cc1 [Trans-1-Nitro-4-styrylbenzene (5)] | 361
15 | COc1ccc(/C=C\c2ccc(F)cc2)cc1 [Trans-1-fluoro-4-(4-methoxystyryl)benzene (10)] | 50
16 | COc1ccc(/C=C\c2ccccc2)cc1Br [Trans-2-Bromo-1-methoxy-4-styryl-benzene (11)] | 56.2
17 | Oc1ccc(/C=C\c2ccccc2)cc1 [Trans-4-Styryl-phenol (8)] | 17.4
18 | N#Cc1ccc(/C=C\c2ccccc2)cc1 [Trans-4-Styrylbenzonitrile (6)] | 50
19 | C(=C/c1c2ccccc2cc2ccccc12)/c1ccccc1 [Trans-9-Styryl-anthracene (15)] | 166
20 | CC(=O)Oc1ccc(C=Cc2ccccc2)cc1 [Trans-Acetic acid 4-styryl-phenyl ester (7)] | > 500
